# In US11400063B2, “Early administration of low-dose colchicine after myocardial infarction” (INSTITUT DE CARDIOLOGIE DE MONTREAL, priority 2019, dated 2022):
# Values joined by “and” are separate entries in the source; they are usually repeats but may differ in a detail not shown here. Equal entries are not always repeated.
# Test system: patients recruited within 30 days after a myocardial infarction
# Assay: COLCOT randomized double-blind trial, efficacy end points, colchicine 0.5 mg once daily vs placebo
# Format: in vivo, human
# Details: for Total primary endpoint events, Rate Ratio (95% CI): Negative binomial model, marginal rate ratio; for Rate of primary endpoint events per 100 patient-months: first and recurrent events
# Description: We performed a randomized, double-blind trial involving patients recruited within 30 days after a myocardial infarction. The patients were randomly assigned to receive either low-dose colchicine (0.5 mg once daily) or placebo. A total of 4745 patients were enrolled; 2386 patients were assigned to the colchicine group, and 2379 to the placebo group. Patients were followed for a median of 22.6 months.
# The primary efficacy end point was a composite of death from cardiovascular causes, resuscitated cardiac arrest, myocardial infarction (e.g., acute myocardial infraction or type II myocardial infarction), stroke, or urgent hospitalization for angina leading to coronary revascularization. The components of the primary end point and safety were also assessed.
# COLCOT was an international multicenter, randomized, double-blinded trial that randomly assigned patients to receive either low-dose colchicine (0.5 mg once daily) or placebo. The study protocol and main results have been published (see, Tardif et al., N Engl J Med 2019). […] Main exclusion criteria were severe heart failure, reduced left ventricular ejection fraction (<35%), recent stroke (<3 months), type 2 MI, recent (<3 years) or planned coronary artery bypass graft (CABG), history of cancer (<3 years), and inflammatory bowel disease or chronic diarrhea. All patients enrolled in the trial benefited from percutaneous coronary intervention whenever indicated and guidelines-directed management of CV disease prior to randomization (see. Tardif et al., N Engl J Med 2019).
# Clinical follow-up consisted of evaluations at 1 and 3 months after randomization and every 3 months thereafter. An independent clinical endpoint committee, blinded to trial-group assignment, adjudicated clinical endpoints. The trial was locally approved by the various institutional review boards, and all patients signed a written informed consent before enrollment.
# The primary efficacy endpoint was a composite of CV death, resuscitated cardiac arrest, MI, stroke, or urgent hospitalization for angina requiring coronary revascularization. The secondary endpoints consisted of the components of the primary efficacy endpoint, all-cause death, and a composite of CV death, resuscitated cardiac arrest, MI, or stroke. Exploratory endpoints included all coronary revascularizations, including both elective and urgent coronary revascularizations.
# The primary efficacy endpoint was a composite of cardiovascular death, MI, ischemic stroke, and urgent coronary revascularization. Secondary efficacy endpoints consisted of the components of the primary endpoint, composite of cardiovascular death, MI, and ischemic stroke, as well as deep vein thrombosis or pulmonary embolus, and atrial fibrillation (AF). To maximize consistency in pooling efficacy endpoints among trials, the primary and secondary composite efficacy and stroke endpoints in COLCOT were modified to meet the definition of primary and stroke endpoints of the LoDoCo2 trial. Therefore, adjudicated events of resuscitated cardiac arrest and non-ischemic stroke in COLCOT were excluded from the pooled primary endpoint. The component endpoint of stroke was also restricted to include only ischemic strokes. Incidence rates and hazards ratios (HRs) were calculated for the new primary composite endpoint and ischemic stroke endpoint using individual patient data from COLCOT.
# The COLCOT trial was performed as follows. A randomized, double-blind trial involving patients recruited within 30 days after a myocardial infarction was performed. The patients were randomly assigned to receive either low-dose colchicine (0.5 mg once daily) or placebo. A total of 4745 patients were enrolled; 2386 patients were assigned to the colchicine group, and 2379 to the placebo group. […]
# [1] = COLCOT endpoint modified to LoDoCo2 definition
# [2] = intention-to-treat population, listed as colchicine
# [3] = intention-to-treat, colchicine vs placebo
# [4] = intention-to-treat, colchicine vs placebo, listed as colchicine
smiles,measurement,setting,value
"COc1cc2c(c(OC)c1OC)-c1ccc(OC)c(=O)cc1[C@@H](NC(C)=O)CC2 [Colchicine, colchicine]",Total number of primary endpoint events (first and recurrent),52949 patient-months of follow-up,154
same,"Primary efficacy composite endpoint, no. of patients with event/total no. of patients",All patients,131/2366
same,"Total primary endpoint events, Hazard Ratio (95% CI)",Andersen-Gill model,0.69 (0.54; 0.88)
same,"Primary composite outcome (cardiovascular mortality, myocardial infarction, ischemic stroke, urgent revascularization), Events %",[1],(5.5%)
same,"Primary composite outcome (cardiovascular mortality, myocardial infarction, ischemic stroke, urgent revascularization), HR (95% CI)",[1],0.77 (0.61-0.97)
same,"Primary composite outcome (cardiovascular mortality, myocardial infarction, ischemic stroke, urgent revascularization), Events N","COLCOT endpoint modified to LoDoCo2 definition, N = 2366",130 N
same,"Ischemic stroke, Events %","COLCOT, only ischemic strokes",0.2%
same,"Ischemic stroke, Events N","COLCOT, only ischemic strokes",4 N
same,"Ischemic stroke, HR (95% CI)","COLCOT, only ischemic strokes",0.25 (0.08-0.75)
same,"Ischemic stroke, HR (95% CI)","COLCOT, only ischemic strokes, listed as colchicine",0.25
same,Number of patients with 0 primary endpoint events per patient,N = 2366,2235
same,Number of patients with 1 primary endpoint event per patient,N = 2366,111
same,Number of patients with 2 primary endpoint events per patient,N = 2366,18
same,Number of patients with 3 primary endpoint events per patient,N = 2366,1
same,Number of patients with 4 primary endpoint events per patient,N = 2366,1
same,"Total primary endpoint events, Rate Ratio (95% CI)",,0.66 (0.51; 0.86)
same,"Total primary endpoint events, Rate Ratio (95% CI)",listed as colchicine,0.66
same,"Total primary endpoint events, Hazard Ratio (95% CI)","WLW model, 1st Event",0.77 (0.61; 0.96)
same,"Total primary endpoint events, Hazard Ratio (95% CI)","WLW model, 2nd Event",0.73 (0.48; 1.11)
same,"Total primary endpoint events, Hazard Ratio (95% CI)","WLW model, 3rd Event",0.64 (0.37; 1.10)
same,"Total primary endpoint events, Hazard Ratio (95% CI)","WLW model, Average",0.77 (0.61; 0.96)
same,Rate of primary endpoint events per 100 patient-months,,0.29 per 100 patient-months
same,Rate of primary endpoint events per 100 patient-months,listed as colchicine,029 per 100 patient-months
same,"Atrial fibrillation, number of patients",intention-to-treat population,36 number
same,"Atrial fibrillation, percent of patients",intention-to-treat population,(1.5) percent
same,"Death from cardiovascular causes, number of patients",intention-to-treat population,20 number
same,"Death, number of patients",intention-to-treat population,43 number
same,"Death, percent of patients",intention-to-treat population,(1.8) percent
same,"Deep venous thrombosis or pulmonary embolus, number of patients",intention-to-treat population,10 number
same,"Deep venous thrombosis or pulmonary embolus, percent of patients",intention-to-treat population,(0.4) percent
same,"Myocardial infarction, number of patients",intention-to-treat population,89 number
same,"Resuscitated cardiac arrest, number of patients",intention-to-treat population,5 number
same,"Resuscitated cardiac arrest, percent of patients",intention-to-treat population,(0.2) percent
same,"Secondary composite end point, percent of patients",intention-to-treat population,(4.7) percent
same,"Stroke, number of patients",intention-to-treat population,5 number
same,"Stroke, percent of patients",intention-to-treat population,(0.2) percent
same,"Urgent hospitalization for angina leading to revascularization, number of patients",intention-to-treat population,25 number
same,"Primary composite end point, number of patients","intention-to-treat population, N = 2366, median follow-up 22.6 months",131 number
same,"Primary composite end point, percent of patients",[2],5.5%
same,"Secondary composite end point, percent of patients",[2],4.7%
same,"Atrial fibrillation, Hazard Ratio (95% CI)",[3],0.93 (0.59-1.46)
same,"Death from cardiovascular causes, Hazard Ratio (95% CI)",[3],0.84 (0.46-1.52)
same,"Death, Hazard Ratio (95% CI)",[3],0.98 (0.64-1.49)
same,"Deep venous thrombosis or pulmonary embolus, Hazard Ratio (95% CI)",[3],1.43 (0.54-3.75)
same,"Myocardial infarction, Hazard Ratio (95% CI)",[3],0.91 (0.68-1.21)
same,"Primary composite end point, Hazard Ratio (95% CI)",[3],0.77 (0.61-0.96)
same,"Resuscitated cardiac arrest, Hazard Ratio (95% CI)",[3],0.83 (0.25-2.73)
same,"Secondary composite end point, Hazard Ratio (95% CI)",[3],0.85 (0.66-1.10)
same,"Stroke, Hazard Ratio (95% CI)",[3],0.26 (0.10-0.70)
same,"Urgent hospitalization for angina leading to revascularization, Hazard Ratio (95% CI)",[3],0.50 (0.31-0.81) and 0.50 (0.31.-0.81)
same,"Death from cardiovascular causes, Hazard Ratio (95% CI)",[4],0.84
same,"Myocardial infarction, Hazard Ratio (95% CI)",[4],0.91
same,"Primary composite end point, Hazard Ratio (95% CI)",[4],0.77
same,"Resuscitated cardiac arrest, Hazard Ratio (95% CI)",[4],0.83
same,"Secondary composite end point, Hazard Ratio (95% CI)",[4],0.85
same,"Stroke, Hazard Ratio (95% CI)",[4],0.26
same,"Urgent hospitalization for angina leading to revascularization, Hazard Ratio (95% CI)",[4],0.50
same,"Secondary composite end point, number of patients","intention-to-treat, death from cardiovascular causes, resuscitated cardiac arrest, myocardial infarction, and stroke",111 number
same,reduction of the risk of ischemic CV events,"main COLCOT results, post-MI setting",23%
same,"Time to first primary endpoint, Adjusted Hazard Ratio (95% CI)","multivariable Cox regression model, colchicine vs. placebo, 4745 observations",0.78 (0.62-0.98)
same,"MI, % of patients",per-protocol population,(3.4%)
same,"MI, no. of patients",per-protocol population,77 no.
same,"Primary endpoint, % of patients",per-protocol population,(5.1%)
